Reference: PMC4605401 (Journal of pharmaceutical and biomedical analysis, 2009)
Blank lines part the entries; values can stand above or below the molecule they belong to.

How the values were obtained:
[1] = molecular target: T1, histamine 1 receptor (H1R) (Homo sapiens, UniProt P35367); assay type: binding; details: histamine subtype selectivity; data not shown
[2] = molecular target: T1, histamine 1 receptor (H1R); details: cellular membrane binding studies; data not shown
P2Y1 receptor [3] = assay: Frontal affinity chromatography on CMAC; assay type: binding, human
[4] = molecular target: T1, histamine 1 receptor (H1R); assay: Frontal affinity chromatography, competitive displacement on CMAC; assay type: binding; details: CMAC(1321N1P2Y1); marker 50 pM [3H]-mepyramine; 10 μM 2-MeSADP in mobile phase
P2Y1 receptor [5] = molecular target: P2Y1 receptor (Homo sapiens, UniProt P47900); assay: as above; assay type: binding; details: CMAC(1321N1P2Y1); marker 1 nM [3H]-2-MeSADP; 1 μM mepyramine in mobile phase
P2Y1 receptor (Homo sapiens, UniProt P47900), sequence (P47900 whole entry): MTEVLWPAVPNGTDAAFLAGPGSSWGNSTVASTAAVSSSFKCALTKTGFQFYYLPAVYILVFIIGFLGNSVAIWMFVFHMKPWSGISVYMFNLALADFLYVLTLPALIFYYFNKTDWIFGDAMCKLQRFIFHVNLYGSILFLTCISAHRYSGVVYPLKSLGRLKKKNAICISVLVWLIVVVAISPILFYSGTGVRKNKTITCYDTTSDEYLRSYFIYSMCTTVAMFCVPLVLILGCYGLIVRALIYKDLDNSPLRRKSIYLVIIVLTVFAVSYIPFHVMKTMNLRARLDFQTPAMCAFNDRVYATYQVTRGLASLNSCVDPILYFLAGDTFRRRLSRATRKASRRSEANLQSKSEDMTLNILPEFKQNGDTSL

T1 sequence (P35367 whole entry): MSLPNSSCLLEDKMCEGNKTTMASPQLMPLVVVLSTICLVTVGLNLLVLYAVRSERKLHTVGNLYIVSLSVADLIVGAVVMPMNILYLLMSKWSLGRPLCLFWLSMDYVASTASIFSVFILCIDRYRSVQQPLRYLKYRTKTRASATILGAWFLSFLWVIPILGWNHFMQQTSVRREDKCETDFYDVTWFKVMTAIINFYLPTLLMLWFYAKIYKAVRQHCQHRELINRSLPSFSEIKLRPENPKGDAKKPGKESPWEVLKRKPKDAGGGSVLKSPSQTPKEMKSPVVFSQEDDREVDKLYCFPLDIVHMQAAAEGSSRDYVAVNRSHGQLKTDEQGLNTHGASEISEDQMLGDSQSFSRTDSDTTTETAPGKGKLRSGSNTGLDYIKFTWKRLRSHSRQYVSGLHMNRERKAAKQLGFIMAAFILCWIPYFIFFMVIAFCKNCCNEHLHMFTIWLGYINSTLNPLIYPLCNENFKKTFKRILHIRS

Molecule: 4-methylhistamine
specific retention on CMAC(1321N1) column [1]: No specific retention | specific binding to 1321N1 cellular membranes [2]: did not specifically bind

effect on the breakthrough volume of mepyramine [4]: no effect
Molecule: CSc1nc(N)c2ncn([C@@H]3O[C@H](COP(=O)(O)OP(=O)(O)O)[C@@H](O)[C@H]3O)c2n1 [2-MeSADP]
CMAC(1321N1) Kd (P2Y1 receptor [3]; P2Y1, non-transfected 1321N1 membranes): No binding | specific retention on CMAC(1321N1) column (P2Y1 receptor [3]; [3H]-2-MeSADP added to the mobile phase): no specific retention

effect on the breakthrough volume of 2-MeSADP (P2Y1 receptor [5]): no effect
Molecule: COc1ccc(CN(CCN(C)C)c2ccccn2)cc1 [Mepyramine, mepyramine]
